Results: patent US20070179060A1, “6-(Poly-substituted aryl)-4-aminopicolinates and their use as herbicides” (priority 2006, published 2007)

Tests used:
Assay in all cases: Postemergence herbicidal activity
Type in all cases: in vivo
[1] = system: velvetleaf (Abutilon theophrasti); details: post-emergent, after 14 days; for % Control ABUTH / pest or weed control at 140 g/ha: 140 g ai/ha
Method: (§1) Seeds or nutlets of the desired test plant species were planted in Sun Gro MetroMix® 306 planting mixture, which typically has a pH of 6.0 to 6.8 and an organic matter content of about 30 percent, in plastic pots with a surface area of 64 square centimeters. When required to ensure good germination and healthy plants, a fungicide treatment and/or other chemical or physical treatment was applied. The plants were grown for 7-21 days in a greenhouse with an approximate 15 hour photoperiod which was maintained at about 23-29° C. during the day and 22-28° C. during the night. Nutrients and water were added on a regular basis and supplemental lighting was provided with overhead metal halide 1000-Watt lamps as necessary. The plants were employed for testing when they reached the first or second true leaf stage. […] The concentrated stock solutions obtained were diluted with 20 mL of an aqueous mixture containing acetone, water, isopropyl alcohol, DMSO, Atplus 411F crop oil concentrate, and Triton® X-155 surfactant in a 48.5:39:10:1.5:1.0:0.02 v/v ratio to obtain spray solutions containing the highest application rates. […] Compound requirements are based upon a 12 mL application volume at a rate of 187 L/ha. Formulated compounds were applied to the plant material with an overhead Mandel track sprayer equipped with a […] nozzles calibrated to deliver 187 L/ha over an application area of 0.503 square meters at a spray height of 18 inches (43 cm) above the average plant canopy height. Control plants were sprayed in the same manner with the solvent blank. The treated plants and control plants were placed in a greenhouse as described above and watered by sub-irrigation to prevent wash-off of the test compounds. […] By applying the well-accepted probit analysis as described by J. Berkson in Journal of the American Statistical […], 48, 565 (1953) and by D.

[2] = system: redroot pigweed (Amaranthus retroflexus); details: post-emergent, after 14 days; for % Control AMARE / pest or weed control at 140 g/ha: 140 g ai/ha
Method: as §1

[3] = system: lambsquarter (Chenopodium album); details: post-emergent, after 14 days; for % Control CHEAL / pest or weed control at 140 g/ha: 140 g ai/ha
Method: as §1

[4] = Abutilon theophrasti, post-emergence, 336 h, read-out: % Control ABUTH
[5] = Amaranthus retroflexus, post-emergence, 336 h, read-out: % Control AMARE
[6] = Chenopodium album, post-emergence, 336 h, read-out: % Control CHEAL

Compound	% Control ABUTH [1] [%]	% Control AMARE [2] [%]	% Control CHEAL [3] [%]	pest or weed control at 140 g/ha [1, 4] [%]	pest or weed control at 140 g/ha [2, 5] [%]	pest or weed control at 140 g/ha [3, 6] [%]	other results
4-Amino-3-chloro-(2-chloro-4-difluoromethyl-6-fluoro-3-methoxy-phenyl)pyridine-2-carboxylic acid, methyl ester [Compound 53]	70	80	95				
COC(=O)c1nc(-c2ccc(C#N)c(OC)c2F)cc(N)c1Cl [Compound 6, 4-Amino-3-chloro-6-(4-cyano-2-fluoro-3-methoxyphenyl)pyridine-2-carboxylic acid methyl ester]				90	100	95	
COC(=O)c1nc(-c2ccc(Cl)c(C(C)(C)F)c2F)cc(N)c1Cl [Compound 25, 4-Amino-3-chloro-6-[4-chloro-2-fluoro-3-(1-fluoro-1-methylethyl)phenyl]-pyridine-2-carboxlic acid, methyl ester]	100	100	100				
COC(=O)c1nc(-c2ccc(F)c(OC)c2F)cc(NC(C)=O)c1Cl [Compound 28, 4-Acetylamino-3-chloro-(2,4-difluoro-3-methoxyphenyl)pyridine-2-carboxylic acid, methyl ester]	100	100	95				
COC(=O)c1nc(-c2ccc(F)c(OC)c2Cl)cc(NC(C)=O)c1Cl [Compound 29, 4-Acetylamino-3-chloro-(2-chloro-4-fluoro-3-methoxyphenyl)pyridine-2-carboxylic acid, methyl ester]	95	40	98				
CCC(F)c1c(Cl)ccc(-c2cc(NC(C)=O)c(Cl)c(C(=O)OC)n2)c1F (stereo not drawn) [Compound 32, 4-Acetylamino-3-chloro-6-[4-chloro-2-fluoro-3-(1-fluoropropyl)-phenyl]pyridine-2-carboxylic acid, methyl ester]				60	80	50	
COC(=O)c1nc(-c2ccc(Cl)c(N(C)C)c2Cl)cc(N)c1Cl [Compound 37, 4-Amino-3-chloro-6-[2,4-dichloro-3-(dimethylamino)phenyl]pyridine-2-carboxylic acid, methyl ester]				100	100	100	
COC(=O)c1nc(-c2ccc(Cl)c(C(=O)OC)c2F)cc(N)c1Cl [Compound 39, 4-Amino-3-chloro-6-[4-chloro-2-fluoro-3-(methoxycarbonyl)phenyl]pyridine-2-carboxyic acid, methyl ester]	90	75	95				
COC(=O)c1nc(-c2ccc(Cl)c(C)c2Cl)cc(N)c1Cl [Compound 48, 4-Amino-3-chloro-6-(2,4-dichloro-3-methylphenyl)pyridine-2-carboxylic acid methyl ester]							pest or weed control at 101 g/ha ([1]; Abutilon theophrasti, post-emergence, 336 h, 101 g ai/ha, read-out: % Control ABUTH): 98%; pest or weed control at 101 g/ha ([2]; Amaranthus retroflexus, post-emergence, 336 h, 101 g ai/ha, read-out: % Control AMARE): 80%; pest or weed control at 101 g/ha ([3]; Chenopodium album, post-emergence, 336 h, 101 g ai/ha, read-out: % Control CHEAL): 85%
COC(=O)c1nc(-c2c(F)cc(Cl)c(C(F)F)c2F)cc(N)c1Cl [Compound 54, 4-Amino-3-chloro-6-(4-chloro-3-difluoromethyl-2,6-difluorophenyl)pyridine-2-carboxylic acid, methyl ester]				100	100	100	
COC(=O)c1nc(-c2c(F)cc(F)c(OC)c2Cl)cc(N)c1Cl [Compound 55, 4-Amino-3-chloro-(2-chloro-4,6-difluoro-3-methoxyphenyl)pyridine-2-carboxylic acid, methyl ester]	100	100	90				
COC(=O)c1nc(-c2c(F)cc(Cl)c(OC)c2Cl)cc(N)c1Cl [Compound 57, 4-Amino-3-chloro-6-(2,4-dichloro-6-fluoro-3-methoxyphenyl)pyridine-2-carboxylic acid, methyl ester]				100	100	100	
CCCCOc1c(Cl)ccc(-c2cc(N)c(Cl)c(C(=O)OC)n2)c1F [Compound 60, 4-Amino-3-chloro-6-(4-chloro-3-butoxy-2-fluorophenyl)pyridine-2-carboxylic acid, methyl ester]				55	90	90	
CCC(F)c1c(Cl)ccc(-c2cc(N)c(Cl)c(C(=O)OC)n2)c1F (stereo not drawn) [Compound 66, 4-Amino-3-chloro-6-[4-chloro-2-fluoro-3-(1-fluoropropyl)phenyl]pyridine-2-carboxylic acid, methyl ester]	90	100	95				
COC(=O)c1nc(-c2ccc(CF)c(OC)c2F)cc(N)c1Cl [Compound 72, 4-Amino-3-chloro-6-(2-fluoro-4-fluoromethyl-3-methoxyphenyl)pyridine-2-carboxylic acid, methyl ester]				100	20	80	
COC(=O)c1nc(-c2c(F)cc(Cl)c(C)c2F)cc(N)c1Cl [Compound 75, 4-Amino-3-chloro-6-(4-chloro-2,6-difluoro-3-methylphenyl)pyridine-2-carboxylic acid, methyl ester]				100	95	95	
COC(=O)c1nc(-c2ccc(Cl)c(OC)c2Br)cc(N)c1Cl [Compound 76, 4-Amino-6-(2-bromo-4-chloro-3-methoxyphenyl)-3-chloropyridine-2-carboxylic acid, methyl ester]				100	100	100	
COC(=O)c1nc(-c2c(F)cc(F)c(C(F)F)c2F)cc(N)c1Cl [Compound 78, 4-Amino-3-chloro-6-(3-difluoromethyl-2,4,6-trifluorophenyl)pyridine-2-carboxylic acid, methyl ester]				90	100	100	
COC(=O)c1nc(-c2ccc(Cl)c([S+](C)[O-])c2F)cc(N)c1Cl (stereo not drawn) [Compound 83, 4-amino-3-chloro-6-(4-chloro-2-fluoro-3-methanesulfinyl-phenyl)pyridine-2-carboxylic acid methyl ester]				90	85	85	
COC(=O)c1nc(-c2ccc(Cl)c(S(C)(=O)=O)c2F)cc(N)c1Cl [Compound 84, 4-amino-3-chloro-6-(4-chloro-2-fluoro-3-methanesulfonylphenyl)pyridine-2-carboxylic acid methyl ester]				80	75	70	
Cc1c(F)ccc(-c2cc(N)c(Cl)c(C(=O)O)n2)c1F [Compound 97, 4-Amino-3-chloro-(2,4-difluoro-3-methylphenyl)pyridine-2-carboxylic acid]	65	85	80				
Nc1cc(-c2ccc(Cl)c(CF)c2F)nc(C(=O)O)c1Cl [Compound 114, 4-Amino-3-chloro-6-(4-chloro-2-fluoro-3-fluoromethylphenyl)pyridine-2-carboxylic acid]				95	85	95	
